{"source": "patent US6730665B1", "about": "“Treatment of bone cancer” (Mayo Foundation for Medical Education and Research, priority 1999, dated 2004)", "key": {"female Fisher 344 rats": {"system": "female Fisher 344 rats", "experiment": "Cancellous bone histomorphometry of rat proximal tibial metaphysis after oral 2ME", "format": "in vivo", "conditions": "100 mg/kg/day oral gavage 13 days, mean ± SE", "experimental": "All studies were approved by the Institutional Animal Care and Use Committee of the Mayo Clinic, Rochester, Minn. Rats were kept in plastic cages (3 per cage) under standard conditions of a 12 hr dark and 12 hr light cycle with food (Purina Laboratory rodent diet 5001, Ralston-Purina, St. Louis, Mo.) and water ad libitum. Rooms were maintained at a temperature of 24° C.\nFluorochromes were given […] tail vein.\nBone histomorphometry Histomorphometric measurements were performed with the OsteoMeasure Analysis System (OsteoMetrics, Atlanta, Ga.), which consisted of a Pentium 1133 computer coupled to a photomicroscope and image analysis system. […] The region of interest was traced, and the line lengths and area bounded by lines were calculated automatically.\nCancellous bone measurements on stained sections The proximal tibial metaphysis was dehydrated in a series of increasing concentrations of ethanol, embedded without demineralization in a mixture of methyimethacrylate-2-hydroxyethyl and methacrylate (12.5:1) to retain the fluorochrome labels, and sectioned at a thickness of 5 μm (Reichert-Jung Model 2065 Microtome, Heidelberg Germany). Sections were stained with toluidine blue. A standard sampling site was established in the secondary spongiosa of the metaphysis, 1 mm distal to the calcein label that was deposited at the metaphyseal growth plate, its center perpendicular to the long axis of each bone and extending 2.0 mm distal to the starting point. This method adjusts for longitudinal growth such that only the portion of the secondary spongiosa present throughout the experiment was sampled. A total metaphyseal area of 2.88 mm^2 was sampled for each section.\nBone volume measurements Cancellous bone area and cancellous perimeter were determined as described by Turner, R. T. et al., 1998, supra. The following indices of trabecular architecture were calculated: 1) trabecular thickness; 2) trabecular number; and 3) trabecular separation.\nBone formation measurements and calculations Bone formation rate (%/day, tissue area referent) was calculated as the double-labeled perimeter (μn) multiplied by the mineral apposition rate (μm/day) and divided by the tissue area (mm^2); bone formation rate (perimeter referent) was calculated as the double-labeled perimeter (μm) multiplied by the mineral apposition rate (μm/day) and divided by the total bone perimeter (mm); mineral apposition rate was calculated as the mean distance between the declomycin label and the calcein label by the time interval (11 days); and double-labeled perimeter (tissue are referent) was measured as the length with declomycin and calcein labels (mm/mm^2 of cancellous tissue area).\nStatistical Analvses All values are expressed as mean±standard error (SE). Significant differences between groups were determined by Fisher's Protected Least Significant Difference post hoc test for multiple group comparisons following detection of significance by 1-way ANOVA. Significance was considered at p values ≦0.05."}, "[1]": {"system": "hFOB cells overexpressing estrogen receptor-alpha (hFOB-ERα)", "experiment": "Cell survival, viable cell count with trypan blue", "format": "cell-based, human", "conditions": "2 μM, 72 h", "experimental": "(§1) MG63 and TE85 human osteosarcoma cells, and ROS 17/2.8 rat osteosarcoma cells were grown in DMEM/F12 phenol-red free medium containing 10% charcoal-stripped fetal bovine serum (FBS) and supplemented with 100 units/ml penicillin, 100 μg/ml streptomycin. Cell were incubated at 37° C. under 5% CO2 in air. Cells were plated at 5×10^4 cells per well into 24 well plates containing 1 ml of medium per well. After allowing the cells to attach overnight, media in the wells were replaced with fresh 1 ml medium. Human fetal osteoblasts (hFOB) cells and hFOB cells overexpressing estrogen receptor-alpha (hFOB-ERα) and estrogen receptor-beta (hFOB-ERβ) were grown in DMEM/F12 medium containing FBS, penicillin, streptomycin and Geneticin (300 μg/mL). The laboratory of Dr. B. L. Riggs at Mayo Clinic provided primary human osteoblast (HOB) cells. HOB cells were basically established from cancellous bone obtained as waste from orthopedic procedures and cultured as explants to generate the osteoblast-like monolayers as described by Borke et al., J. Clin. Endocrinol. Metab., 1988, 67:1299-1304. […]\n(§2) Estrogen metabolites were diluted 1000 fold to give the final required concentrations in each well, and maintained for 72 hrs. […] Cell growth was measured by taking the viable cell count. At the end of metabolite treatment, cells were harvested, stained with trypan blue, and counted under a light microscope."}, "[2]": {"system": "hFOB cells overexpressing estrogen receptor-beta (hFOB-ERβ)", "experiment": "Cell survival, viable cell count with trypan blue", "format": "cell-based, human", "conditions": "2 μM, 72 h", "experimental": "as §1, §2"}, "MG63 osteosarcoma cells": {"system": "MG63 osteosarcoma cells", "experiment": "In situ apoptosis by TUNEL assay", "format": "cell-based, human", "conditions": "10 μM, 48 h", "experimental": "The effect of 2ME on in situ apoptosis was examined at the single cell level, based on labeling of DNA strand breaks using the TUNEL (terminal deoxynucleotidyl transferase-mediated dUTP nick end labeling) assay per manufacturer's protocol (Boehringer Mannheim, Indianapolis, Ind.). In this method, the ends of broken DNA strands were labeled with fluorescein-dUTP, and apoptotic cells in adherent cultures were detected by fluorescence microscopy. In brief, TUNEL assay was performed on coverslips of adherent cells contained in individual wells of a 24-well culture dish. Cells were washed once with phosphate buffered saline (PBS) and allowed to air dry before being fixed in 4% phosphate-buffered paraformaldehyde pH 7.4 (Sigma, St. Louis, Mo.) for 1 h at room temperature. Following a PBS rinse, endogenous peroxidase was blocked by incubating cells for 1 h at room temperature with 0.3% hydrogen peroxide in methanol (Sigmna). The latter was performed for the option of converting fluorescein-labeled cells to peroxidase-labeled cells and DAB chromogenic detection. Subsequent to a PBS rinse, cells were permeabilized on ice with incubation in 0.1% Triton X-100 in 0.1% sodium citrate for 2 min. Coverslips were rinsed twice in PBS before the addition of TUNEL reaction mixture (100 μl). […] Coverslips were rinsed 3 times with PBS before visualization by fluorescence microscopy. […]"}, "estrogen receptors": {"system": "estrogen receptors", "conditions": "cited from earlier work"}}, "data": [{"smiles": "COc1cc2c(cc1O)CC[C@@H]1[C@@H]2CC[C@]2(C)[C@@H](O)CC[C@@H]12", "note": "[2ME, 2-methoxyestradiol]", "values": [{"measurement": "BFR/BS", "setting": "female Fisher 344 rats", "result": "0.35 ± 0.03", "unit": "%/day"}, {"measurement": "BV/TV", "setting": "female Fisher 344 rats", "result": "17.7 ± 1.9", "unit": "%"}, {"measurement": "Mineral Apposition Rate", "setting": "female Fisher 344 rats", "result": "172 ± 0.05", "unit": "μm/day"}, {"measurement": "Tb.Sp", "setting": "female Fisher 344 rats", "result": "297 ± 46", "unit": "μm"}, {"measurement": "Tb.Th", "setting": "female Fisher 344 rats", "result": "57 ± 2", "unit": "μm"}, {"measurement": "cell numbers reduced to", "setting": "[1]", "result": 24, "unit": "%"}, {"measurement": "cell numbers reduced to", "setting": "[2]", "result": 24, "unit": "%"}, {"measurement": "TUNEL staining", "setting": "MG63 osteosarcoma cells", "result": "Positive staining"}, {"measurement": "affinity for estrogen receptors (in words)", "setting": "estrogen receptors", "result": "negligible affinity"}]}]}
